Among the data in patent publication US5696108A, “Protein kinase C inhibitors” (Eli Lilly and Company, priority 1996, dated 1997) are ring closure, yield of all isomers, isozyme selectivity and IC50 values, retold here.

“Also recorded” adds a separate entry of the source.

For data set [1] the following is noted: from CN1C(=O)C(c2c[nH]c3ccccc23)=C(c2cn(CCCOC(CCI)CO[Si](c3ccccc3)(c3ccccc3)C(C)(C)C)c3ccccc23)C1=O; amine bond; cesium carbonate; DMF; 5.85 mM; 83.0 h.
A further data set deals with protein kinase C. As to conditions: literature; cited from earlier work.
Data set [2] addresses T1, cAMP-dependent kinase catalytic subunit (Bos taurus, UniProt P00517).
T1 construct: purchased Sigma, St. Louis, Mo; host or cells: bovine heart
As to the kind of experiment: cAMP-Dependent protein Kinase Catalytic Subunit Assay. Type of data set: biochemical, bovine. As to conditions: Table 1.

The next data set concerns the target PKC gamma (Homo sapiens, UniProt P05129). As to the kind of experiment: PKC Enzyme Assay, gamma isozyme. Type of data set: biochemical. The conditions noted are these: Table 2; read-out: Isozymes ED50 γ. On the procedure:
(§1) PKC enzymes=alpha, beta I, beta II, gamma, delta, epsilon, eta and zeta.
(§2) Assay components in a total volume of 250 μL are as follows:
(§3) For all the enzymes either histone type HL (Worthington) or myelin basic protein is used as substrate. The assay is started by addition of protein kinase C enzyme incubated at 30° C. for 10 minutes and stopped by adding 0.5 mL of cold trichloroacetic acid (Amresco) followed by 100 μL of 1 mg/mL bovine serum albumin (Sigma, St. Louis, Mo.). The precipitate is collected by vacuum filtration on glass fiber filters employing a TOMTEC™ filtration system and quantified by counting in a beta scintillation counter.

In data set [3] the target is calcium calmodulin dependent protein kinase. As to the kind of experiment: Calcium Calmodulin Dependent Protein Kinase Assay (CAM). The conditions noted are these: Table 1. Type of data set: biochemical, rat.
Another data set deals with PKC eta (Homo sapiens, UniProt P24723). As to the kind of experiment: PKC Enzyme Assay, eta isozyme. Type of data set: biochemical. As to conditions: Table 2; read-out: Isozymes ED50 eta. On the procedure:
as §1, §2, §3

A further data set addresses T2, casein protein kinase II (Rattus norvegicus, UniProt P19139).
T2 construct: isolated from rat brain homogenate; from tissue; host or cells: rat brain homogenate
As to the kind of experiment: Casein Protein Kinase II Assay (CK-II). Type of data set: biochemical. The conditions noted are these: Table 1.

The target in the next data set is T3, src (Homo sapiens, UniProt P12931).
T3 construct: purchased Onogene Science, Inc. PK02 and PK03
T3 sequence (P12931 whole entry, species assumed): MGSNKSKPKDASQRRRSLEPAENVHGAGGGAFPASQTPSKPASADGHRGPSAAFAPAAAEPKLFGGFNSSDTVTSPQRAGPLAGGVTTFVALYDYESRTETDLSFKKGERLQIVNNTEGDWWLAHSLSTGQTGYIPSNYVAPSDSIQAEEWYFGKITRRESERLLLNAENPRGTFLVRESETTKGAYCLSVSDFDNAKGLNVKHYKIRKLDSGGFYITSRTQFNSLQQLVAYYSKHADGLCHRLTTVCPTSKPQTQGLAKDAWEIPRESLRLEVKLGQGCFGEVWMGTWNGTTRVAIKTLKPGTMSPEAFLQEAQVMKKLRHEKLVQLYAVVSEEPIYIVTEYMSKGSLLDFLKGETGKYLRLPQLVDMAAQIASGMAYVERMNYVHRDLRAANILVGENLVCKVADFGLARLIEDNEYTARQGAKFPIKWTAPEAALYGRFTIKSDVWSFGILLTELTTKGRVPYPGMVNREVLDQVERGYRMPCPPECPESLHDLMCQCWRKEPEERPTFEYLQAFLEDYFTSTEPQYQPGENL
As to the kind of experiment: Protein Tyrosine Kinase Assay (src). Type of data set: biochemical. As to conditions: Table 1. On the procedure: Protein Tyrosine Kinase Assay (src)
The Assay components are the following:
4 μL DMSO or DMSO/inhibitor

Another data set deals with PKC-β1 (Homo sapiens, UniProt P05771). As to the kind of experiment: PKC Enzyme Assay, beta-1 isozyme. The data set is classed as biochemical. The conditions noted are these: Table 1.
PKC-β1, sequence (P05771 whole entry): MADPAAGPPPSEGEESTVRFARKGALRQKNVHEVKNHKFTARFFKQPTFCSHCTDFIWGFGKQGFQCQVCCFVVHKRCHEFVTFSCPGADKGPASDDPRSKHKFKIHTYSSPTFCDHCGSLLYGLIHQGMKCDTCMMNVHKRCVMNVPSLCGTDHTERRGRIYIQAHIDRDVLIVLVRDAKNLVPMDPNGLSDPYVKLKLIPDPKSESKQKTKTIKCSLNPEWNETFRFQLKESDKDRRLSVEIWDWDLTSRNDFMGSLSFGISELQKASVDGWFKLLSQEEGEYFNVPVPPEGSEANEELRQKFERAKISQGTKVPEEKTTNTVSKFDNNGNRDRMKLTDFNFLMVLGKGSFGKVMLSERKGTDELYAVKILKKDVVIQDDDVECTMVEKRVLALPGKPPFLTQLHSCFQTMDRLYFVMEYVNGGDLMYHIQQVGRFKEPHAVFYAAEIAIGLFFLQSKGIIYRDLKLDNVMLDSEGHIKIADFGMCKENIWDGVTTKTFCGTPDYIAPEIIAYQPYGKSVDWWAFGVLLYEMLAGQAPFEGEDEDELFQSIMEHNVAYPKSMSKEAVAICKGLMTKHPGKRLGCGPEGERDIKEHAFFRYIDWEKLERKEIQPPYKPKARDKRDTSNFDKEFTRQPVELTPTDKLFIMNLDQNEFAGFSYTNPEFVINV
The target of another data set is PKC-α (Homo sapiens, UniProt P17252). As to the kind of experiment: PKC Enzyme Assay, alpha isozyme. Type of data set: biochemical. The conditions noted are these: Table 1.
In a further data set the target is PKC-β2 (Homo sapiens, UniProt P05771). As to the kind of experiment: PKC Enzyme Assay, beta-2 isozyme. Type of data set: biochemical. The conditions noted are these: Table 1.
PKC-β2, sequence (P05771 1-673 isoform P05771-2): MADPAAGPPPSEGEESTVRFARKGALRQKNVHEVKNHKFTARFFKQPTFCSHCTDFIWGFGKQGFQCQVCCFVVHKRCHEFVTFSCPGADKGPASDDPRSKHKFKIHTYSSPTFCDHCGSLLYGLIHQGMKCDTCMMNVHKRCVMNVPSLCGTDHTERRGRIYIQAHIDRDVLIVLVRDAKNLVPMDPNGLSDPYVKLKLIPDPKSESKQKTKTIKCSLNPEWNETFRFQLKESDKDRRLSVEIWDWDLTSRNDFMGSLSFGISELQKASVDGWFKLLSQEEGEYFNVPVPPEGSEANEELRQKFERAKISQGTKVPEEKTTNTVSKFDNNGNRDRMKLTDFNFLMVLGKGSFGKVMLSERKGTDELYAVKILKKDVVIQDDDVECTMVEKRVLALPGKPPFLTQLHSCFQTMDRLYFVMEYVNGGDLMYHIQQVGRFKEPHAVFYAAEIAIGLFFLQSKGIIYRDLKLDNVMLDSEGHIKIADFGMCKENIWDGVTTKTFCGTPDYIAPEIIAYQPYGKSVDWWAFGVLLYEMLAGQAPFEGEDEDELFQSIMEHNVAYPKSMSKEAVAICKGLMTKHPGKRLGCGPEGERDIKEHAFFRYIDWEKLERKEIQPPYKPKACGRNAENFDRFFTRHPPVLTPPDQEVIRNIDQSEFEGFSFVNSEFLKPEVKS

T2 sequence (P19139 whole entry): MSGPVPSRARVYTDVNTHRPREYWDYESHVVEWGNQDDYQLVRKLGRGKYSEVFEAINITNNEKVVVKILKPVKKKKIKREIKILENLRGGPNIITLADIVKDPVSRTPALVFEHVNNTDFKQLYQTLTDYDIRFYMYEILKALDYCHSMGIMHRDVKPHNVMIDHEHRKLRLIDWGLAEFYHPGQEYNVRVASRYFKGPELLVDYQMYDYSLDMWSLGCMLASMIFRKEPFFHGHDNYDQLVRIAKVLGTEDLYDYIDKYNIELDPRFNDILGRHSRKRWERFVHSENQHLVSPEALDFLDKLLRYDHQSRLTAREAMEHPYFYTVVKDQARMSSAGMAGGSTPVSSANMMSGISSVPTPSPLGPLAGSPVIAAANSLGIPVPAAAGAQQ
T2 sequence (P67874 2-215 partner limits assumed): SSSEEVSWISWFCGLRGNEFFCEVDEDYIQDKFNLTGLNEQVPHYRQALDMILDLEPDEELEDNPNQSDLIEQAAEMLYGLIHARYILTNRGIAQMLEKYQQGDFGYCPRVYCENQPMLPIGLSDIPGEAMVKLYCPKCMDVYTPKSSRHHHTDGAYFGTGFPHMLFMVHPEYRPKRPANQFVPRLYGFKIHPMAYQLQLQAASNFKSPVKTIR
PKC eta, sequence (P24723 whole entry): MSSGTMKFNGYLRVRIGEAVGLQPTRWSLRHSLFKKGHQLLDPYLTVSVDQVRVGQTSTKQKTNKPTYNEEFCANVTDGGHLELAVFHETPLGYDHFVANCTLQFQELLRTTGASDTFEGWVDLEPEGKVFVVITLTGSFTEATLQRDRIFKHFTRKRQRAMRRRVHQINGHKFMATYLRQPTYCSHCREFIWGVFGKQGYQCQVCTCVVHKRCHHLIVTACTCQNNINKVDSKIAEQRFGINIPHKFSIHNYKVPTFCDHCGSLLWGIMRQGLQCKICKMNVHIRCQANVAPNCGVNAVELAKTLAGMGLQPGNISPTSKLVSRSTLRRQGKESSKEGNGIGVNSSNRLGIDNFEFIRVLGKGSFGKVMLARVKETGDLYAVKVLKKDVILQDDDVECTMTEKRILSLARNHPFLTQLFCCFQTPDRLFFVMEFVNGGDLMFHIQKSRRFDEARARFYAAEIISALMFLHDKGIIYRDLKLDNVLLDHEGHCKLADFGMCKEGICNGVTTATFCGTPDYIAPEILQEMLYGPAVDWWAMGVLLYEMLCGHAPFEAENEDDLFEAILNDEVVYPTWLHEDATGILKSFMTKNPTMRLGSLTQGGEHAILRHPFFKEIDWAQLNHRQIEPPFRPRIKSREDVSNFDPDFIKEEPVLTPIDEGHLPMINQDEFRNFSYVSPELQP

As to `CN1C(=O)C2=C(C1=O)c1cn(c3ccccc13)CCC(CO[Si](c1ccccc1)(c1ccccc1)C(C)(C)C)OCCCn1cc2c2ccccc21` (stereo not drawn), the ring closure, yield of all isomers in [1] turned out to be 97%.

Regarding `CN(C)CCCn1cc(C2=C(c3c[nH]c4ccccc34)C(=O)NC2=O)c2ccccc21` [3-[1-(3-dimethylaminopropyl)-indol-3-yl]-4-(1H-indol-3-yl)-1H-pyrrole-2,5-dione], the isozyme selectivity result with protein kinase C was “slight selectivity for the calcium dependent isozymes; also recorded: no difference, or possibly slight selectivity, for alpha over beta-1 and beta-2 isozymes”.

Take `CN(C)CC1CCn2cc(c3ccccc32)C2=C(C(=O)NC2=O)c2cn(c3ccccc23)CCO1` (stereo not drawn) [Example 5]: the IC50 in data set [2] is > 100 µM; at PKC gamma, 0.23 µM; in data set [3] it was 4 µM; at PKC eta, 0.035 µM; against casein protein kinase II, > 100 µM.

Turning to `NC1CCCn2cc(c3ccccc32)C2=C(C(=O)NC2=O)c2cn(c3ccccc23)CCC1` [Example 45], the IC50 in data set [2] is > 100 µM; in data set [3], 39 µM; against src it was > 125 µM; against PKC-β1, 0.1 µM; at casein protein kinase II, > 100 µM; on PKC-α, 3 µM. On PKC-β2, this molecule had an IC50 of 0.1 µM.

For the molecule `CC(=O)NC1CCCn2cc(c3ccccc32)C2=C(C(=O)NC2=O)c2cn(c3ccccc23)CCC1` [Example 46], the IC50 was > 100 µM in data set [2]; 63 µM in [3]; > 100 µM against src; 0.04 µM at PKC-β1; > 100 µM on casein protein kinase II; 3 µM against PKC-α. This molecule came in with an IC50 against PKC-β2 of 0.04 µM.

For the molecule `O=C1NC(=O)C2=C1c1cn(c3ccccc13)CCCC(NCc1ccccc1)CCCn1cc2c2ccccc21` [Example 47], the IC50 in data set [2] was > 100 µM; in [3], 70 µM; on src it was > 125 µM; at PKC-β1, 0.07 µM; against casein protein kinase II, > 100 µM; against PKC-α, 2 µM. The IC50 against PKC-β2 was 0.06 µM.

On to `O=C1NC(=O)C2=C1c1cn(c3ccccc13)CCCC1(CCCn3cc2c2ccccc23)OCCO1` [Example 48], for which the IC50 in data set [2] was > 100 µM; in [3] it was > 100 µM; on src it was > 100 µM; on PKC-β1, 0.5 µM; against casein protein kinase II, > 100 µM; at PKC-α, > 100 µM. On PKC-β2, this molecule yielded an IC50 of 0.3 µM.

Consider `O=C1CCCn2cc(c3ccccc32)C2=C(C(=O)NC2=O)c2cn(c3ccccc23)CCC1` [Example 49], for which the IC50 in data set [2] is > 100 µM; in [3], > 100 µM; against src, > 100 µM; at PKC-β1, 0.6 µM; against casein protein kinase II, > 100 µM; at PKC-α it was 10 µM. The same molecule showed an IC50 against PKC-β2 of 0.4 µM.
